15 molecules from patent US12692254B2, “Benzimidazole inhibitors of PAD enzymes” (BRISTOL-MYERS SQUIBB COMPANY, priority 2018, dated 2026) can be followed below.

In this assay the target is human PAD4 (hPAD4) (Homo sapiens, UniProt Q9UM07). Put plainly: RFMS human PAD4 functional assay (rapid-fire mass spectrum). It counts as biochemical. To be noted: 5 nM hPAD4 enzyme, 250 μM BAEE, 50 μM Calcium; 30 min preincubation, 90 min reaction at 37° C. As to the method: Compounds of the present invention were assayed as inhibitors of PAD4 using the assay protocol described below.
RFMS tinman PAD4 Functional Assay:
Compounds were solubilized in 100% DMSO to achieve a 10 mM compound concentration. Compound stock solutions were stored at RT. A series of dilutions were prepared in DMSO and mixed 8 times with 20 μl, mixing volume. Final top concentration of compound in the assay is 50 μM. […] 1-90 min enzyme/substrate reaction, 30 min reaction with phenyl glyoxal at 37° C. • Stop solution: 40 μl 5% TCA in ACN
0.13 μL of compound solution was added to 13 μL of 10 nM PAD4 in assay buffer. After 30 min 13 μl of 500 μM of BAEE was added in 25 mM hepes, pH 7.5, 5 mM NaCl, 1 mM DTT, 0.2 mg/ml BS A, 0.01% CHAPS, 50 μM Calcium, 5 μM TPEN was added and the reaction incubated for 90 min at 37° C. The enzymatic reaction was quenched by addition of 15 μl of 6.1N TCA, 100% Final Concentration is 20%, 35 μl of 8.5 mM phenyl glyoxal (final concentration 4 mM) is then added and the reaction is incubated for 30 min at 37° C.
After 30 minutes the plates are spun down to remove all precipitate. The enzyme reaction was quenched with an equal volume of methanol containing internal standard (modified citrulline). Samples were loaded onto the Rapid Fire RF300 system (Agilent) wherein they were first sipped for 1000 ms and then directly loaded to a C18 separations cartridge using a mixture of acetonitrile containing 0.01% formic acid for 3000 ms desalting. The flow rate of the mobile phase was 1.5 ml/min.
The dwell time for each transition was set at 200 ms, and the ESI voltage was used at 5500 with a source temperature of 400° C. Extracted ion peaks for each transition were integrated using the Rapid Fire Integrator software. Peak area of analyte was normalized with internal standard).

A word on the IC50: it is the point on the concentration scale where inhibition reaches its midpoint.

Chain of human PAD4 (hPAD4) (Q9UM07 whole entry): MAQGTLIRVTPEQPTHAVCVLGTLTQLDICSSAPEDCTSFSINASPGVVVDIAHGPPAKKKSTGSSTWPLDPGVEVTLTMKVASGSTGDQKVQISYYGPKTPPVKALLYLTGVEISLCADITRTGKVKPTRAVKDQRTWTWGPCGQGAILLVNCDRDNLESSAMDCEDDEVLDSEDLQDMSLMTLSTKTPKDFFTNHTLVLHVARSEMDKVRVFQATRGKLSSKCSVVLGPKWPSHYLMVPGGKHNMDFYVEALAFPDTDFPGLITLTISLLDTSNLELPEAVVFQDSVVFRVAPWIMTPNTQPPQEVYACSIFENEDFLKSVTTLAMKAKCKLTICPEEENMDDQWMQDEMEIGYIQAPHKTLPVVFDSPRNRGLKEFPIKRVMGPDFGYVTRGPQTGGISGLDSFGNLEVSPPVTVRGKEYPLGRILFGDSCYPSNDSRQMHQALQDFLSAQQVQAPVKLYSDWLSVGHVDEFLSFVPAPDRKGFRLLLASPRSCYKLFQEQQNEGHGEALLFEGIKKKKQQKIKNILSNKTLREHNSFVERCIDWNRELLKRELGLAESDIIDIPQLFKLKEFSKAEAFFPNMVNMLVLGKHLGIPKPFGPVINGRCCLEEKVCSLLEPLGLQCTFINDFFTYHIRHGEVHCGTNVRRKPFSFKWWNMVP

`COc1cc(C(=O)N2CC3CCC2[C@@H]3N)cc2nc(-c3cc4ccccc4n3CC(F)(F)F)n(Cc3cnn(C)c3)c12` (stereo partly drawn) [Example 495, (7R)-2-{7-methoxy-1-[(1-methyl-1H-pyrazol-4-yl)methyl]-2-[1-(2,2,2-trifluoroethyl)-1H-indol-2-yl]-1H-1,3-benzodiazole-5-carbonyl}-2-azabicyclo[2.2.1]heptan-7-amine]: the IC50 was 88 nM.
As for `COc1cc(C(=O)N2C[C@H]3CC[C@@H]2[C@@H]3N)cc2nc(-c3cc4cccnc4n3CC3CC3)n(C3CCN(C(=O)c4cnc(C#N)nc4)CC3)c12` [Example 229, 5-(4-{5-[(1R,4R,7R)-7-amino-2-azabicyclo[2.2.1]heptane-2-carbonyl]-2-[1-(cyclopropylmethyl)-1H-pyrrolo[2,3-b]pyridin-2-yl]-7-methoxy-1H-1,3-benzodiazol-1-yl}piperidine-1-carbonyl)pyrimidine-2-carbonitrile], the IC50 came out at 219 nM.
Then `COc1cc(C(=O)N2C[C@H](N)C[C@@H](F)C2)cc2nc(-c3cc4ccccc4n3CC3CC3)n(CCCOc3ccc(C#N)cc3)c12` [Example 271, 4-(3-{5-[(3R,5R)-3-amino-5-fluoropiperidine-1-carbonyl]-2-[1-(cyclopropylmethyl)-1H-indol-2-yl]-7-methoxy-1H-1,3-benzodiazol-1-yl}propoxy)benzonitrile], with 145 nM.
Then `COc1cc(C(=O)N2C[C@H]3CC[C@@H]2[C@@H]3N)cc2nc(-c3cc4cccnc4n3CC3CC3)n(C[C@@H]3CCN(c4cncnc4C#N)C3)c12` [Example 214, 5-[(3R)-3-({5-[(1R,4R,7R)-7-amino-2-azabicyclo[2.2.1]heptane-2-carbonyl]-2-[1-(cyclopropylmethyl)-1H-pyrrolo[2,3-b]pyridin-2-yl]-7-methoxy-1H-1,3-benzodiazol-1-yl}methyl)pyrrolidin-1-yl]pyrimidine-4-carbonitrile], with 116 nM; and `COc1cc(C(=O)N2C[C@H](N)C[C@@H](F)C2)cc2nc(-c3cc4ccccc4n3CC3CC3)n(CC3CC3)c12` [Example 480, (3R,5R)-1-[1-(cyclopropylmethyl)-2-[1-(cyclopropylmethyl)-1H-indol-2-yl]-7-methoxy-1H-1,3-benzodiazole-5-carbonyl]-5-fluoropiperidin-3-amine], with 301 nM.
Take `COc1cc(C(=O)N2C[C@H]3CC[C@@H]2[C@@H]3N)cc2nc(-c3cc4cccnc4n3CC3CC3)n(CC3CN(c4ccc(C#N)cc4)C3)c12` [Example 25, 4-[3-({5-[(1R,4R,7R)-7-amino-2-azabicyclo[2.2.1]heptane-2-carbonyl]-2-[1-(cyclopropylmethyl)-1H-pyrrolo[2,3-b]pyridin-2-yl]-7-methoxy-1H-1,3-benzodiazol-1-yl}methyl)azetidin-1-yl]benzonitrile]: the IC50 was found to be 72 nM.
As for `COc1cc(C(=O)N2C[C@H]3CC[C@@H]2[C@@H]3N)cc2nc(-c3cc4cccnc4n3CC3CC3)n(C3CN(C(=O)c4cnc(NCC(C)(C)O)nc4)C3)c12` [Example 185, 1-{[5-(3-{5-[(1R,4R,7R)-7-amino-2-azabicyclo[2.2.1]heptane-2-carbonyl]-2-[1-(cyclopropylmethyl)-1H-pyrrolo[2,3-b]pyridin-2-yl]-7-methoxy-1H-1,3-benzodiazol-1-yl}azetidine-1-carbonyl)pyrimidin-2-yl]amino}-2-methylpropan-2-ol], the figure is 316 nM; as for `COc1ncc(-n2cc(Cn3c(-c4cc5ccccc5n4CC4CC4)nc4cc(C(=O)N5CC6CCC5[C@@H]6N)cc(OC)c43)cn2)cc1F` (stereo partly drawn) [Example 410, (7R)-2-{2-[1-(cyclopropylmethyl)-1H-indol-2-yl]-1-{[1-(5-fluoro-6-methoxypyridin-3-yl)-1H-pyrazol-4-yl]methyl}-7-methoxy-1H-1,3-benzodiazole-5-carbonyl}-2-azabicyclo[2.2.1]heptan-7-amine], 87 nM; as for `COc1cc(C(=O)N2C[C@H]3CC[C@@H]2[C@@H]3N)cc2nc(-c3cc4cccnc4n3CC3CC3)n(C3CN(S(C)(=O)=O)C3)c12` [Example 330, (1R,4R,7R)-2-{2-[1-(cyclopropylmethyl)-1H-pyrrolo[2,3-b]pyridin-2-yl]-1-(1-methanesulfonylazetidin-3-yl)-7-methoxy-1H-1,3-benzodiazole-5-carbonyl}-2-azabicyclo[2.2.1]heptan-7-amine], 184 nM.
Then `COc1cc(C(=O)N2C[C@H](N)C[C@@H](F)C2)cc2nc(-c3cc4cccnc4n3CC3CC3)n(CC3(F)CN(C(=O)c4ccccc4)C3)c12` [Example 468, (3R,5R)-1-{1-[(1-benzoyl-3-fluoroazetidin-3-yl)methyl]-2-[1-(cyclopropylmethyl)-1H-pyrrolo[2,3-b]pyridin-2-yl]-7-methoxy-1H-1,3-benzodiazole-5-carbonyl}-5-fluoropiperidin-3-amine], with 99 nM; and `COc1cc(C(=O)N2C[C@H]3CC[C@@H]2[C@@H]3N)cc2nc(-c3cc4cccnc4n3CC3CC3)n(CC3CN(C(=O)CC4CC4)C3)c12` [Example 115, 1-[3-({5-[(1R,4R,7R)-7-amino-2-azabicyclo[2.2.1]heptane-2-carbonyl]-2-[1-(cyclopropylmethyl)-1H-pyrrolo[2,3-b]pyridin-2-yl]-7-methoxy-1H-1,3-benzodiazol-1-yl}methyl)azetidin-1-yl]-2-cyclopropylethan-1-one], with 59 nM; and `COc1cccc(-n2cc(Cn3c(-c4cc5cccnc5n4CC4CC4)nc4cc(C(=O)N5CC6CCC5[C@@H]6N)cc(OC)c43)cn2)n1` (stereo partly drawn) [Example 365, (7R)-2-{2-[1-(cyclopropylmethyl)-1H-pyrrolo[2,3-b]pyridin-2-yl]-7-methoxy-1-{[1-(6-methoxypyridin-2-yl)-1H-pyrazol-4-yl]methyl}-1H-1,3-benzodiazole-5-carbonyl}-2-azabicyclo[2.2.1]heptan-7-amine], with 27 nM.
Then `COc1cc(C(=O)N2CC3CCC2[C@@H]3N)cc2nc(-c3cc4ccccc4n3CC3CC3)n(Cc3cnn(-c4ccc(C)nc4)c3)c12` (stereo partly drawn) [Example 350, (7R)-2-{2-[1-(cyclopropylmethyl)-1H-indol-2-yl]-7-methoxy-1-{[1-(6-methylpyridin-3-yl)-1H-pyrazol-4-yl]methyl}-1H-1,3-benzodiazole-5-carbonyl}-2-azabicyclo[2.2.1]heptan-7-amine], with 16 nM; and `COc1cc(C(=O)N2CC3CCC2[C@@H]3N)cc2nc(-c3cc4ccccc4n3CC3CC3)n(CC3CN(C(=O)c4cscn4)C3)c12` (stereo partly drawn) [Example 453, (7R)-2-{2-[1-(cyclopropylmethyl)-1H-indol-2-yl]-7-methoxy-1-{[1-(1,3-thiazole-4-carbonyl)azetidin-3-yl]methyl}-1H-1,3-benzodiazole-5-carbonyl}-2-azabicyclo[2.2.1]heptan-7-amine], with 53 nM; and `COc1cc(C(=O)N2CC3CCC2[C@@H]3N)cc2nc(-c3cc4ccccc4n3CC3CC3)n(Cc3cnn(-c4cccnc4)c3)c12` (stereo partly drawn) [Example 368, (7R)-2-{2-[1-(cyclopropylmethyl)-1H-indol-2-yl]-7-methoxy-1-{[1-(pyridin-3-yl)-1H-pyrazol-4-yl]methyl}-1H-1,3-benzodiazole-5-carbonyl}-2-azabicyclo[2.2.1]heptan-7-amine], with 29 nM.
